According to ChEMBL document CHEMBL1125012, “Inhibition of enzymes of estrogen and androgen biosynthesis by esters of 4-pyridylacetic acid” (J Med Chem, 1990):
Where “and” joins values, the source holds several entries; their conditions need not be identical. Equal entries are not always repeated.

Target: T1, Steroid 17-alpha-hydroxylase/17,20 lyase (Rattus norvegicus, UniProt P11715)
T1 sequence (P11715 whole entry): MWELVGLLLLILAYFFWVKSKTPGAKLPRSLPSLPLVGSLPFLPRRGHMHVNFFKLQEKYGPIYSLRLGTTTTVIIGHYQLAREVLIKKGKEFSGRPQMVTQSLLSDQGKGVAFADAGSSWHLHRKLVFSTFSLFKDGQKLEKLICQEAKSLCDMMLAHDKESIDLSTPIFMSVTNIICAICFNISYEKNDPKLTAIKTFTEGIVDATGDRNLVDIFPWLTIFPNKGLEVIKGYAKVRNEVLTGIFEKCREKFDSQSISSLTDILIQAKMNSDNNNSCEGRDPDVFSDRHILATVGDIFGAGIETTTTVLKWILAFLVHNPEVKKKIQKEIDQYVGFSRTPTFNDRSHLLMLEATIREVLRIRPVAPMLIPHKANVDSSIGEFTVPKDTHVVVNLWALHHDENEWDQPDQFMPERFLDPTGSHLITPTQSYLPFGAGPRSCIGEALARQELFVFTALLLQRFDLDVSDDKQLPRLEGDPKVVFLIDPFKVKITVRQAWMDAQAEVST

Compound | IC50
CC(C)OC(=O)Cc1ccncc1 | > 100 µM
CC(C)(C(=O)OC1CCCCC1)c1ccncc1 | 4.5 µM and 3.6 µM
O=C(Cc1ccncc1)OC12CC3CC(CC(C3)C1)C2 | 0.61 µM and 0.56 µM
CC(C)CC(C)OC(=O)Cc1ccncc1 (stereo unspecified) | 17 µM and 13 µM
CC1(OC(=O)Cc2ccncc2)CCCCC1 | 11 µM and 10 µM
O=C(Cc1ccncc1)Oc1ccccc1 | > 100 µM
CC(C)CCOC(=O)Cc1ccncc1 | > 100 µM
CC1(C)C2CCC1(C)C(OC(=O)Cc1ccncc1)C2 (single isomer, unassigned; (-)) | 2.2 µM and 1.5 µM
CC1C(OC(=O)Cc2ccncc2)CC2CC1C2(C)C (stereo in doubt; 18) | 0.28 µM and 0.26 µM
CC1C(OC(=O)Cc2ccncc2)CC2CC1C2(C)C (stereo in doubt; 19) | 1.8 µM and 1.7 µM

More lines, now with the values ahead:

IC50 | Compound
2.7 µM and 2 µM | CCC1CCC(OC(=O)Cc2ccncc2)CC1 (stereo unspecified)
3 µM and 2.1 µM | CC(C)(C)C1CCC(OC(=O)Cc2ccncc2)CC1 (stereo unspecified)
32 µM and 28 µM | CC1CCC(OC(=O)Cc2ccncc2)C1 (stereo unspecified)
131 µM and 77 µM | O=C(Cc1ccncc1)OC1CCCC1
36 µM and 25 µM | CC1CCC(OC(=O)Cc2ccncc2)CC1 (stereo in doubt; 6)
5.1 µM and 4.5 µM | CC1CCC(C(C)C)C(OC(=O)Cc2ccncc2)C1 (stereo in doubt; 12)
15 µM and 12 µM | CC1CCC(C(C)C)C(OC(=O)Cc2ccncc2)C1 (stereo in doubt; 13)
41 µM and 31 µM | O=C(Cc1ccncc1)OC1=CC2CCC1C2 (stereo in doubt; 14)
46 µM and 45 µM | O=C(Cc1ccncc1)OC1=CC2CCC1C2 (stereo in doubt; 15)
0.54 µM and 0.59 µM | CC1(C)C2CCC1(C)C(OC(=O)Cc1ccncc1)C2 (stereo in doubt; 17)
4.4 µM and 4.2 µM | CC1CCC(OC(=O)Cc2ccncc2)CC1 (trans isomer)
